Test results as given in patent publication US11673139B2, “Microfluidic platforms for drug discovery” (UVic Industry Partnerships Inc., priority 2020, dated 2023).

Experiment: Passive diffusion of fluorophore through tripartite DIB network (intestinal space, enterocyte, blood compartments)
Assay type: in vitro ADME
Parameters: half-life: dose or concentration left out as unconfirmed
From the text: The first droplet 12 can mimic the intestinal space, the second droplet 14 can mimic an enterocyte, and the third droplet 16 can mimic the blood. The interior of each droplet 12, 14, 16 comprises a buffer (see Table 1) that mimics the pH and salt composition of the respective compartment. The barrier layer or artificial membrane between each pair of adjacent droplets can be an equal mixture of the phospholipids L-α-phosphatidylcholine (PC) and L-α-phosphatidylethanolamine (PE). The size of the droplets 116 can mimic the volume of human cells.
To prepare the lipid solutions, chloroform was removed from the lipid stock solutions by placing 10 mg (e.g., 400 μL of a 25 mgmL^−1 solution) of lipids in a 10 mL glass roundbottom flask, and rotating the flask under a stream of nitrogen gas to create a thin film. The flask was then placed in a desiccator under vacuum for 1 hour to remove residual solvent. […]
During use, the microfluidic devices were mounted in a heating platform set to 37° C. on a microscope stage (e.g., a Nikon Eclipse Ti2-E or a Nikon Eclipse Ti2-U inverted microscope) for visualization. […] Fluorescence and brightfield images for fluorescence experiments were captured using a measurement camera (e.g., a Hamamatsu ORCA Flash4.0 V3, with a Solis 1C cold white LED (e.g., from Thorlabs) and a GFP SemrockBrightline large field of view filter cube (e.g., from Nikon).
Reagents were introduced into the microfluidic devices using a pressure pump (e.g., an Elveflow OB1 MK3 pressure pump), four 1.5 mL Eppendorf tubes as reservoirs and four matched lengths of PTFE tubing. […] Following equilibration, the main chamber was monitored in Motion Blitz Director for quantification of device performance, and NIS Elements Advanced Research (Nikon, version 5.11.01) for fluorescence data collection. Following formation of a tripartite DIB network for a fluorescence experiment, flow was stopped from all reservoirs from within the Elveflow control software. […]

compartment preference in control triplets (100 µM): clear preference for pH 7.4 compartments | Papp (DIB network treated as two compartment model, intestinal space to enterocyte droplet, Equation (3), data of FIG. 6): (5.5±0.8)×10^−5 cms^−1 | half-life (DIB network, intestinal space droplet (pH 6.5) into enterocyte droplet (pH 7.4), 37° C., exponential curve fit, FIG. 5, read-out: half-life (t1/2) of the fluorophore in the intestinal space (converted)): 1.8 min
Compound: O=C1OC2(c3ccc(O)cc3Oc3cc(O)ccc32)c2ccccc21 [fluorescein]
